IC50 data for 6 molecules are collected here from patent US20250236622A1, “BICYCLIC COMPOUNDS AS INHIBITORS OF WRN” (Incyte Corporation, priority 2023, published 2025).

For assay [1], the target named is T1, WRN (Homo sapiens, UniProt Q14191).
T1 construct: A His-tagged construct of WRN (AA S2-S1235) was produced and used for the ATPase assay; made in house; host or cells: Sf9 insect cells (baculovirus, pFastBac1)
In words: WRN Helicase Activity Assay (fluorescence DNA unwinding). As to conditions: 1-hr pre-incubation with enzyme; 100 μM ATP, 25 nM forked dsDNA, 1 nM WRN; geometric mean of at least 2 replicates. Type of assay: biochemical. As for the experimental part:
Compounds of the examples were tested for WRN helicase activity. DNA encoding the target protein, 6×HIS-TEV-WRN-517-945, was produced, cloned and transfected as detailed in Example D. To determine the inhibitory properties of the compounds, a 384 wells plate-based Helicase assay was set up to measure the extent of DNA unwinding (Helicase) activity of WRN. The WRN Helicase assay was designed to measure increase in fluorescence signal using a fluorescence based, donor-quencher paired forked dsDNA oligomer substrate (custom synthesis from Sigma-Aldrich) prepared by annealing equal amounts of oligo GPat-1 ([BHQ2][…]) and oligo GPat-2 ([…][TAM]). Continuous measurement of fluorescent signal was used to optimize the buffer conditions, concentration of enzyme (WRN), concentration of substrates (ATP & dsDNA), and the linearity of the Helicase reaction. All solutions were prepared in the following assay buffer: 50 mM Tris-HCl, pH-7.5, 2 mM MgCl2, 50 mM NaCl, 1 mM EGTA, 0.01% P-20, 0.05% BSA, and 2 mM DTT prepared with nuclease free water.
A serial dilution (1:3 scheme) of the compounds was prepared in neat DMSO and 100 nL of the compounds was dispensed in the Greiner black low volume (Greiner #784076) 384 wells assay plate. An 1-hr pre-incubation of the compounds with enzyme was included. A His-tagged construct of WRN (AA S2-S1235) was produced and used for the ATPase assay. Maximum inhibition control wells were set up with the addition of only assay buffer, and no inhibition control wells were set up with neat DMSO without test compounds. The reaction was initiated by addition of 5 μL substrate mix (200 μM ultrapure ATP, and 50 nM dsDNA prepared in assay buffer) and incubated at 25° C. for 35 min. A typical Helicase reaction consists of 25 nM forked dsDNA, 100 μM ATP, and 1 nM WRN prepared in assay buffer. The WRN Helicase reaction was quenched by the addition of 5 μL ‘STOP’ solution containing 100 mM EDTA (final EDTA concentration 33.33 mM) prepared in assay buffer. The plates were read on BMG PHERAstar FSX using 540/590 module to measure an increase of fluorescence. Data analysis was carried out using the Genedata software following % of control normalization. Fitting parameters include dose response IC50, Hill slope (n), maximum inhibition (S∞), and minimum inhibition (S0). The reported IC50 values for compounds in this invention are the geometric means of at least 2 independent replicates.

For assay [2], the target named is T1, WRN. Description: WRN ATPase Activity Assay (ADP-Glo). It counts as biochemical. As to conditions: 1-hr pre-incubation with enzyme; 100 μM ATP, 25 nM forked dsDNA, 1 nM WRN; geometric mean of at least 2 replicates. As for the experimental part: Compounds of the Examples were tested for WRN ATPase activity. WRN ATPase activity catalyzes ATP hydrolysis to produce ADP and phosphate. DNA encoding the target protein, 6×HIS-TEV-WRN-517-945, was produced, cloned and transfected as detailed in Example D. The amount of ADP produced was measured using ADP-Glo™ Kinase Assay kit from Promega Corporation in a Greiner white regular volume 384 wells assay plate (Greiner #781075). Data was normalized to a standard curve generated using various ADP concentrations and the corresponding luminescent signal intensities at each concentration.
The assay conditions were optimized for enzyme concentration (WRN), substrate concentrations (ATP & dsDNA), and the linearity of the ATPase reaction, in the following assay buffer: 50 mM Tris-HCl, pH-7.5, 2 mM MgCl2, 50 mM NaCl, 1 mM EGTA, 0.01% P-20, 0.05% BSA, and 2 mM DTT prepared with nuclease free water.
A serial dilution (1:3 scheme) of the compounds were prepared in neat DMSO, with 100 nL of the compounds dispensed in the 384 wells assay plate. An 1-hr pre-incubation of the compounds with enzyme was included. A His-tagged construct of WRN (AA S2-S1235) was produced and used for the ATPase assay. Maximum inhibition control wells were set up with the addition of only assay buffer, and no inhibition control wells were set up with neat DMSO without test compounds. The reaction was initiated by addition of 5 μL substrate mix (200 μM ultrapure ATP, and 50 nM dsDNA prepared in assay buffer) and incubated at 25° C. for 35 min. A forked dsDNA oligomer substrate was prepared by annealing equal amounts of oligo GPat-1 ([BHQ2][…]) and oligo GPat-2 ([…][TAM]) and was used as dsDNA substrate for WRN ATPase assay. A typical ATPase reaction consists of 25 nM forked dsDNA, 100 μM ATP, and 1 nM WRN prepared in assay buffer. The WRN ATPase reaction was stopped by the addition of 5 μL of ADP-Glo Reagent from ADP-Glo™ Kinase Assay kit and incubated for 40 min to deplete the unreacted ATP. Afterwards, 5 μL of Kinase Detection Reagent from the ADP-Glo™ Kinase Assay kit was added and incubated for 1 hr for the development of luminescence signal.
Luminesce signals were measured on BMG PHERAstar FSX using luminescence protocol. Data analysis was carried out using Genedata software following % of control normalization. Fitting parameters include dose response IC50, Hill slope (n), maximum inhibition (S∞), and minimum inhibition (S0). The reported IC50 values for compounds in this invention are the geometric means of at least 2 independent replicates.
(ADP-Glo turns the ADP formed in a reaction into a luminescent signal.)

T1 sequence (Q14191 2-1235): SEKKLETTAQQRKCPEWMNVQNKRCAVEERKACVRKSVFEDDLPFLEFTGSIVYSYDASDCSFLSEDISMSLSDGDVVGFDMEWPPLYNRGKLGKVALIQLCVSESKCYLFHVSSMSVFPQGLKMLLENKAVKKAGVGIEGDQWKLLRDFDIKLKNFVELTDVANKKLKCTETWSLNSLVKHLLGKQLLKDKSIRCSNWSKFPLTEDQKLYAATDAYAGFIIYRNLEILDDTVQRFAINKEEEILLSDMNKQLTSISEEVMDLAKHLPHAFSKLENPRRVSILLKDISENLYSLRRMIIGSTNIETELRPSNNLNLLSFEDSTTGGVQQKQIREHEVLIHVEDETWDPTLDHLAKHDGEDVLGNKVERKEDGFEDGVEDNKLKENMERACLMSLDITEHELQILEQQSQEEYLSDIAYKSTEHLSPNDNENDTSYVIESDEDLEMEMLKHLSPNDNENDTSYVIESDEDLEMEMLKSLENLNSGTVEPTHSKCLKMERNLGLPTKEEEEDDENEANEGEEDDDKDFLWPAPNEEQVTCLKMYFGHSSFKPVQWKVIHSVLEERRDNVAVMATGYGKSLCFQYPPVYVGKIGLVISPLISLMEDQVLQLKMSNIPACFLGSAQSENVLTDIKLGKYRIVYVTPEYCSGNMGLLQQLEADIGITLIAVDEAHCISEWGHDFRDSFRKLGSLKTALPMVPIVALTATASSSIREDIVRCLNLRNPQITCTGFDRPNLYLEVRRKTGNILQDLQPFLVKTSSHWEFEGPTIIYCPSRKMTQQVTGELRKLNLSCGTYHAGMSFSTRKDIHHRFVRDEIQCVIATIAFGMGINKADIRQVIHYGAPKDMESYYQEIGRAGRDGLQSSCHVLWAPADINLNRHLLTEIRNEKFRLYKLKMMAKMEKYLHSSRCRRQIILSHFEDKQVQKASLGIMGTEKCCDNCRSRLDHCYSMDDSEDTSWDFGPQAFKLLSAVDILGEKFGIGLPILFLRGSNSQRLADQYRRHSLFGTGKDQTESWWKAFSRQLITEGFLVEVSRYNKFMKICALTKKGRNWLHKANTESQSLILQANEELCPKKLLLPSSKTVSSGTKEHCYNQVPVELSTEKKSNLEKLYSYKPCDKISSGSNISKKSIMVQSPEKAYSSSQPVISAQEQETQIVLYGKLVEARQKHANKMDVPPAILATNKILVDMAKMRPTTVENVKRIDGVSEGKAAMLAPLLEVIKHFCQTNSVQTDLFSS

As to `C=CC(=O)Nc1ccccc1-c1c(CC)nc2n(CC(=O)Nc3ccc(C(F)(F)F)cc3)c(C3CCCCC3)nn2c1=O` [Example 4, N-(2-(2-Cyclohexyl-5-ethyl-7-oxo-3-(2-oxo-2-((4-(trifluoromethyl)phenyl)amino)ethyl)-3,7-dihydro-[1,2,4]triazolo[1,5-a]pyrimidin-6-yl)phenyl)acrylamide], the IC50 on WRN [1] lay in the range of 5000 to 20000 nM; at WRN [2], 1000 to 5000 nM.
For `C=CC(=O)Nc1ccccc1-c1c(CC)nc2n(CC(=O)Nc3ccc(C(F)(F)F)cc3)c(-c3cccs3)nn2c1=O` [Example 5, N-(2-(5-ethyl-7-oxo-3-(2-oxo-2-((4-(trifluoromethyl)phenyl)amino)ethyl)-2-(thiophen-2-yl)-3,7-dihydro-[1,2,4]triazolo[1,5-a]pyrimidin-6-yl)phenyl)acrylamide] the same measures were 100 to 500 nM and 100 to 500 nM.
With `C=CC(=O)Nc1ccccc1-c1c(CC)nc2n(CC(=O)Nc3ccc(C(F)(F)F)cc3)c(C3CCNCC3)nn2c1=O` [Example 6, N-(2-(5-Ethyl-7-oxo-3-(2-oxo-2-((4-(trifluoromethyl)phenyl)amino)ethyl)-2-(piperidin-4-yl)-3,7-dihydro-[1,2,4]triazolo[1,5-a]pyrimidin-6-yl)phenyl)acrylamide], the IC50 on WRN [1] and at WRN [2] was 1000 to 5000 nM throughout.
Consider `C=CC(=O)Nc1ccccc1-c1c(CC)nc2n(CC(=O)Nc3ccc(C(F)(F)F)cc3)c(C3CC3)nn2c1=O` [Example 2, N-(2-(2-Cyclopropyl-5-ethyl-7-oxo-3-(2-oxo-2-((4-(trifluoromethyl)phenyl)amino)ethyl)-3,7-dihydro-[1,2,4]triazolo[1,5-a]pyrimidin-6-yl)phenyl)acrylamide], for which the IC50 on WRN [1] and at WRN [2] was less than 100 nM throughout.
In the case of `C=CC(=O)Nc1ccccc1-c1c(CC)nc2n(CC(=O)Nc3ccc(C(F)(F)F)cc3)c(C3CCC3)nn2c1=O` [Example 3, N-(2-(2-Cyclobutyl-5-ethyl-7-oxo-3-(2-oxo-2-((4-(trifluoromethyl)phenyl)amino)ethyl)-3,7-dihydro-[1,2,4]triazolo[1,5-a]pyrimidin-6-yl)phenyl)acrylamide], the IC50 against WRN [1] and against WRN [2] was 100 to 500 nM in each case.
Turning to `C=CC(=O)Nc1ccccc1-c1c(CC)nc2n(CC(=O)Nc3ccc(C(F)(F)F)cc3)c(C)nn2c1=O` [Example 1, N-(2-(5-Ethyl-2-methyl-7-oxo-3-(2-oxo-2-((4-(trifluoromethyl)phenyl)amino)ethyl)-3,7-dihydro-[1,2,4]triazolo[1,5-a]pyrimidin-6-yl)phenyl)acrylamide], the IC50 on WRN [1] and on WRN [2] was less than 100 nM each time.

Usually IC50 stands for the concentration needed to halve the response being measured.
